Assay results taken from ChEMBL document CHEMBL5512665, “A CARM1 Inhibitor Potently Suppresses Breast Cancer Both In Vitro and In Vivo” (J Med Chem, 2024).
Calls of active or inactive are those of the source. The calls are words filed in the database; no cut-off is given here.

Assays:
MCF7 [1] = experiment: Antiproliferative activity against human MCF7 cells with siRNA mediated CARM1 knockdown assessed as reduction in cell growth at 5 uM incubated for 7 days by celltiter 96 aqueous one solution cell proliferation assay; assay type: functional, cell-based; settings: time 7.0 day
MCF7 [2] = experiment: Antiproliferative activity against tamoxifen-resistant human MCF7 cells assessed as reduction in cell growth at 5 uM incubated for 7 days by celltiter 96 aqueous one solution cell proliferation assay; assay type: functional, cell-based; settings: time 7.0 day
[3] = Toxicity in BALB/C mouse xenografted with human MCF7 cells assessed as change in lung morphology at 25 mg/kg,ip administrated every other day for 29 days; assay type: organism-based; settings: in vivo, 696 h, time 29 day
[4] = Toxicity in BALB/C mouse xenografted with human MCF7 cells assessed as change in lung morphology at 50 mg/kg,ip administrated every other day for 29 days; assay type: organism-based; settings: in vivo, 696 h, time 29 day
MCF7 [5] = experiment: Antitumor activity against human MCF7 cells xenografted in BALB/C mouse assessed as downregulation of C-Myc gene expression at 25 mg/kg,ip administrated every other day for 29 days by RT-qPCR analysis; assay type: functional, organism-based; settings: time 29.0 day
MCF7 [6] = experiment: Antitumor activity against human MCF7 cells xenografted in BALB/C mouse assessed as downregulation of TFF1 gene expression at 50 mg/kg,ip administrated every other day for 29 days by RT-qPCR analysis; assay type: functional, organism-based; settings: time 29.0 day
MCF7 [7] = experiment: Antitumor activity against human MCF7 cells xenografted in BALB/C mouse assessed as downregulation of FOXC1 gene expression at 25 mg/kg,ip administrated every other day for 29 days by RT-qPCR analysis; assay type: functional, organism-based; settings: time 29.0 day
MCF7 [8] = experiment: Antitumor activity against human MCF7 cells xenografted in BALB/C mouse assessed as upregulation of ISG15 gene expression at 25 mg/kg,ip administrated every other day for 29 days by RT-qPCR analysis; assay type: functional, organism-based; settings: time 29.0 day
MDA-MB-231 = experiment: Antitumor activity against human MDA-MB-231 cells xenografted in BALB/C mouse assessed as reduction of tumor weight at 50 mg/kg,ip administrated daily for 11 days; assay type: functional, organism-based; settings: time 11.0 day
[9] = Toxicity in BALB/C mouse xenografted with human MDA-MB-231 cells assessed as change in spleen morphology at 25 mg/kg,ip administrated daily for 11 days; assay type: organism-based; settings: in vivo, 264 h, time 11 day
[10] = Toxicity in BALB/C mouse xenografted with human MDA-MB-231 cells assessed as change in spleen morphology at 50 mg/kg,ip administrated daily for 11 days; assay type: organism-based; settings: in vivo, 264 h, time 11 day
[11] = Toxicity in BALB/C mouse xenografted with human MDA-MB-231 cells assessed as change in lung morphology at 25 mg/kg,ip administrated daily for 11 days; assay type: organism-based; settings: in vivo, 264 h, time 11 day
[12] = Toxicity in BALB/C mouse implanted with mouse 4T1 cells assessed as change in body weight at 50 mg/kg,ip administrated daily for 14 days; assay type: organism-based; settings: in vivo, 336 h, time 14 day
[13] = Toxicity in BALB/C mouse implanted with mouse 4T1 cells assessed as change in spleen morphology at 50 mg/kg,ip administrated daily for 14 days; assay type: organism-based; settings: in vivo, 336 h, time 14 day
[14] = Toxicity in BALB/C mouse implanted with mouse 4T1 cells assessed as change in lung morphology at 50 mg/kg,ip administrated daily for 14 days; assay type: organism-based; settings: in vivo, 336 h, time 14 day
4T1 [15] = experiment: Antitumor activity against mouse 4T1 cells implanted in BALB/C mouse assessed as downregulation of CCND1 gene expression at 50 mg/kg,ip administrated daily for 14 days by RT-qPCR analysis; assay type: functional, organism-based; settings: time 14.0 day
4T1 [16] = experiment: Antitumor activity against mouse 4T1 cells implanted in BALB/C mouse assessed as downregulation of TFF1 gene expression at 25 mg/kg,ip administrated daily for 14 days by RT-qPCR analysis; assay type: functional, organism-based; settings: time 14.0 day
4T1 [17] = experiment: Antitumor activity against mouse 4T1 cells implanted in BALB/C mouse assessed as downregulation of TFF1 gene expression at 50 mg/kg,ip administrated daily for 14 days by RT-qPCR analysis; assay type: functional, organism-based; settings: time 14.0 day
4T1 [18] = experiment: Antitumor activity against mouse 4T1 cells implanted in BALB/C mouse assessed as downregulation of GREB1 gene expression at 25 mg/kg,ip administrated daily for 14 days by RT-qPCR analysis; assay type: functional, organism-based; settings: time 14.0 day
4T1 [19] = experiment: Antitumor activity against mouse 4T1 cells implanted in BALB/C mouse assessed as downregulation of NRIP1 gene expression at 25 mg/kg,ip administrated daily for 14 days by RT-qPCR analysis; assay type: functional, organism-based; settings: time 14.0 day
4T1 [20] = experiment: Antitumor activity against mouse 4T1 cells implanted in BALB/C mouse assessed as upregulation of IFNalpha gene expression at 50 mg/kg,ip administrated daily for 14 days by RT-qPCR analysis; assay type: functional, organism-based; settings: time 14.0 day
4T1 [21] = experiment: (§1) Antitumor activity against mouse 4T1 cells implanted in BALB/C mouse assessed as increase in infiltration of CD8 positive T cells at 25 mg/kg,ip administrated daily for 14 days by immunohistochemical staining based analysis; assay type: functional, organism-based; settings: time 14.0 day
MCF7 [22] = experiment: Synergistic antiproliferative activity against human MCF7 cells assessed as downregulation of CCND1 gene expression at 2.5 uM incubated for 6 hrs in presence of fulvestrant by RT-qPCR analysis; assay type: functional, cell-based
MCF7 [23] = experiment: Synergistic antiproliferative activity against human MCF7 cells assessed as downregulation of C-Myc gene expression at 2.5 uM incubated for 6 hrs in presence of fulvestrant by RT-qPCR analysis; assay type: functional, cell-based
MCF7 [24] = experiment: Synergistic antiproliferative activity against human MCF7 cells assessed as downregulation of TFF1 gene expression at 2.5 uM incubated for 6 hrs in presence of tamoxifen by RT-qPCR analysis; assay type: functional, cell-based
MCF7 [25] = experiment: Synergistic antiproliferative activity against human MCF7 cells assessed as downregulation of FOXC1 gene expression at 2.5 uM incubated for 6 hrs in presence of fulvestrant by RT-qPCR analysis; assay type: functional, cell-based
[26] = Toxicity in BALB/C mouse xenografted with human MCF7 cells assessed as change in body weight at 25 mg/kg,ip administrated every other day for 15 days in presence of 5 mg/kg tamoxifen oral administration; assay type: organism-based; settings: in vivo, 360 h, time 15 day
MCF7 [27] = experiment: Potentiation of etoposide induced antiproliferative activity against human MCF7 cells assessed as inhibition of colony formation at 2.5 uM incubated for 10 days in presence of etoposide by crystal violet staining based analysis; assay type: functional, cell-based; settings: time 10.0 day
4T1 [28] = experiment: Potentiation of etoposide induced antiproliferative activity against mouse 4T1 cells assessed as inhibition of cell growth at 2.5 uM incubated for 7 days in presence of etoposide by celltiter 96 aqueous one solution cell proliferation assay; assay type: functional, cell-based; settings: time 7.0 day
4T1 [29] = experiment: Potentiation of etoposide induced antitumor activity against mouse 4T1 cells implanted in BALB/C mouse assessed as reduction in tumor size at 25 mg/kg,ip administrated daily for 12 days in presence of 8 mg/kg etoposide administration; assay type: functional, organism-based; settings: time 12.0 day
4T1 [30] = experiment: Potentiation of etoposide induced antitumor activity against mouse 4T1 cells implanted in BALB/C mouse assessed as upregulation of ISG15 gene expression at 25 mg/kg,ip administrated daily for 12 days in presence of 8 mg/kg etoposide administration by RT-qPCR analysis; assay type: functional, organism-based; settings: time 12.0 day
4T1 [31] = experiment: as §1, with “Potentiation of etoposide induced antitumor” for “Antitumor”, “12” for “14”, “days in presence of 8 mg/kg etoposide administration” for “days”; assay type: functional, organism-based; settings: time 12.0 day

Cc1ccc(-c2nc(N3CCN(CCN(C)C)CC3)ncc2-c2ccoc2)cc1.Cl.Cl
Activity (MCF7 [1]): inactive | Activity (MCF7 [2]): Active | Activity [3]: Non-Toxic | Activity [4]: Non-Toxic | Activity (MCF7 [5]): Active | Activity (MCF7 [6]): Active | Activity (MCF7 [7]): Active | Activity (MCF7 [8]): Active | Activity (MDA-MB-231): Active | Activity [9]: Non-Toxic | Activity [10]: Non-Toxic | Activity [11]: Non-Toxic | Activity [12]: Non-Toxic | Activity [13]: Non-Toxic | Activity [14]: Non-Toxic | Activity (4T1 [15]): Active | Activity (4T1 [16]): Active | Activity (4T1 [17]): Active | Activity (4T1 [18]): Active | Activity (4T1 [19]): Active | Activity (4T1 [20]): Active | Activity (4T1 [21]): Active | Activity (MCF7 [22]): Active | Activity (MCF7 [23]): Active | Activity (MCF7 [24]): Active | Activity (MCF7 [25]): Active | Activity [26]: Non-Toxic | Activity (MCF7 [27]): Active | Activity (4T1 [28]): Active | Activity (4T1 [29]): Active | Activity (4T1 [30]): Active | Activity (4T1 [31]): Active
